This is an account of results in US5153218A, “N,N',N'-trisubstituted-bis-amino-3-methylene-2,4(3H,5H)-furandione inhibitors of acyl-CoA:cholesterol-acyl transferase” (American Home Products Corporation, priority 1991, dated 1992).

In general, pIC50 refers to −log10 of the IC50, conventionally taken in molar units.

The structures appear in SMILES notation. pIC50: −log10 of the molar value. Like-named read-outs stand apart in the source and are kept apart here.

The subject of test [1] is acyl-coenzyme A: cholesterol acyltransferase. Put plainly: inhibition of acyl-coenzyme A: cholesterol acyltransferase in vitro (intracellular cholesterol esterification, procedure of Ross et al.). The following applies: for percent inhibition at a single concentration: unit assumed. The format is cell-based. The text has this:
The ability of the compounds of this invention to inhibit acyl-coenzyme A: cholesterol acyltransferase was established in vitro by initially showing that they inhibited intracellular cholesterol esterification by subjecting them to the standard experimental test procedure of Ross et al., J. Biol. Chem. 259 815 (1984).

In test [2] the test system is 14C-Cholesterol Absorption. The following applies: po.
Description: Representative compounds were further tested in vivo to establish the percent inhibition of cholesterol absorption. In this study, normal rats were dosed (oral gavage) with ^14 C-cholesterol plus the test compound. Blood samples taken at six hours and/or intermittently up to twenty-four hours were analyzed and the percent inhibition of cholesterol absorption was calculated.
A further test deals with Plasma Cholesterol. Briefly: in vivo decrease of plasma cholesterol in cholesterol-cholic acid fed rats. The following applies: oral gavage, four days. As to the method: In addition, representative compounds were studied in vivo in cholesterol-cholic acid fed rats to determine the percent decrease of cholesterol in their plasma. This study involves rats which are, prior to testing, trained for one week to eat over a four hour time period each day. Upon initiation of the experiment, the rats diet is supplemented with 1.0 percent cholesterol and 0.25 percent cholic acid. The rats are dosed with the test compound by oral gavage just prior to and just following the four hour feeding period. This is repeated for four days. On the fifth day, the rats are sacrificed and the total plasma cholesterol content is determined. The percent decrease in elevated plasma cholesterol levels is calculated in comparison with normal-fed controls.

Compound `CCCCCCCN(Cc1ccc(C(C)(C)C)cc1)C(Nc1ccc(F)cc1)=C1C(=O)COC1=O` [Example 1, 3-[[[[4-(1,1-Dimethylethyl)phenyl]methyl]heptylamino][(4-fluorophenyl)amino]methylene]-2,4(3H,5H)-furandione] showed a negative-log IC50 (pIC50) in test [1] of 5.22. This compound also came in with a percent inhibition at a single concentration in test [1] (Conc. 50 mM (so in the source)) of 96%. Further, the “% Inhibition of Absorption” value in test [2] (200 mg/kg) is on record as -74%.

In test [1] (Conc. 50 mM (so in the source)), `CCCCCCN(CCCCCC)C(Nc1ccc(F)cc1)=C1C(=O)COC1=O` [Example 2, 3-[(Dihexylamino)[(4-fluorophenyl)amino]methylene]-2,4(3H,5H)furandione] had a percent inhibition at a single concentration of 57%.

For `CCCCCCCN(Cc1ccc(C(C)(C)C)cc1)C(Nc1ccc(OC)cc1OC)=C1C(=O)COC1=O` [Example 3], in test [1], the pIC50 was 5.40. For the same compound, the percent inhibition at a single concentration in test [1] (Conc. 50 mM (so in the source)) was found to be 90%.

For the compound `CCCCCCCC/C=C\CCCCCCCCNC(Nc1ccc(OC)cc1OC)=C1C(=O)COC1=O` [Example 4, 3-[[(2,4-Dimethoxyphenyl)amino]((Z)-9-octadecenylamino)methylene]-2,4(3H,5H)-furandione], the percent inhibition at a single concentration in test [1] (Conc. 50 mM (so in the source)) was found to be 63%. Also, the “% Inhibition of Absorption” value in test [2] (200 mg/kg) is -14%.

Regarding `CCCCCCCN(Cc1ccc(CC(C)(C)C)cc1)C(Nc1c(OC)cc(OC)cc1OC)=C1C(=O)COC1=O` [Example 5, 3-[[[4-(2,2-Dimethylpropyl)phenylmethyl]heptylamino][(2,4,6-trimethoxyphenyl)amino]methylene]-2,4(3H,5H)-furandione], in test [1], the pIC50 is 4.96. The compound further registered a percent inhibition at a single concentration in test [1] (Conc. 25 mM (so in the source)) of 67%.

In turn, `CCCCCCCN(Cc1ccc(OCCC(C)C)cc1)C(Nc1ccc(OC)cc1OC)=C1C(=O)COC1=O` [Example 6, 3-[[(2,4-Dimethoxyphenyl)amino][(heptyl)[[4-(3-methylbutoxy)phenyl]methyl]amino]methylene]-2,4(3H,5H)-furandione] gave a pIC50 in test [1] of 6.40. Moreover, in test [1] (Conc. 25 mM (so in the source)), the percent inhibition at a single concentration is 99%.

For the compound `CCCCCC(C)N(Cc1ccc(CC(C)(C)C)cc1)C(Nc1ccc(OC)cc1OC)=C1C(=O)COC1=O` (centres unmarked) [Example 7, 3-[[(2,4-Dimethoxyphenyl]amino][[[4-(2,2-dimethylpropyl)phenyl]methyl](1-methylhexyl)-amino]methylene]2,4(3H,5H)-furandione], in test [1], the pIC50 is 6.04. Besides, the percent inhibition at a single concentration in test [1] (Conc. 25 mM (so in the source)) amounted to 98%. Besides, the “% Decrease in Plasma Cholesterol” value in the test with Plasma Cholesterol (40 mg/kg) is recorded as -26%. Moreover, the “% Inhibition of Absorption” value in test [2] (20 mg/kg) is on record as -62%.

`CCCCCC(C)N(Cc1ccc(CC(C)(C)C)cc1)C(Nc1cc(C(C)(C)C)c(O)c(C(C)(C)C)c1)=C1C(=O)COC1=O` (centres unmarked) [Example 8]: the pIC50 in test [1] was 6.72. This compound also came in with a percent inhibition at a single concentration in test [1] (Conc. 25 mM (so in the source)) of 99%. The “% Decrease in Plasma Cholesterol” value in the test with Plasma Cholesterol (20 mg/kg) is recorded as -71%. Besides, in test [2] (20 mg/kg), the “% Inhibition of Absorption” value is given as -72%.

In test [1], `CCCCCCN(CCCCCC)C(Nc1ccc(OC)cc1OC)=C1C(=O)COC1=O` [Example 9, 3-[(Dihexylamino)[(2,4-dimethoxyphenyl)amino]methylene]-2,4(3H,5H)-furandione] had a pIC50 of 4.60. In addition, in test [1] (Conc. 50 mM (so in the source)), the percent inhibition at a single concentration was determined as 87%.

Compound `CCCCCCCC/C=C\CCCCCCCCNC(Nc1ccc(F)cc1)=C1C(=O)COC1=O` [Example 10, 3-[[(4-Fluorophenyl)amino]((Z)-9-octadecenylamino)methylene]2,4(3H,5H)-furandione] had a pIC50 in test [1] below 4.52. For the same compound, the percent inhibition at a single concentration in test [1] (Conc. 50 mM (so in the source)) came to 61%.

With `COc1ccc(NC(=C2C(=O)COC2=O)N(CCc2ccccc2)Cc2ccccc2)c(OC)c1` [Example 11, 3-[[(2,4-Dimethoxyphenyl)amino][(2-phenylethyl)(phenylmethyl)amino]methylene]-2,4(3H,5H)-furandione], the negative-log IC50 (pIC50) in test [1] is below 4.52. The percent inhibition at a single concentration in test [1] (Conc. 50 mM (so in the source)) is 72%.

Compound `CCCCCCN(CCCCCC)C(Nc1ccc(-c2ccccc2)cc1)=C1C(=O)COC1=O` [Example 12, 3-[([1,1'-Biphenyl]-4-ylamino)(dihexylamino)methylene]-2,4(3H,5H)-furandione] gave a negative logarithm of the IC50 (pIC50) in test [1] of 4.57. Besides, in test [1] (Conc. 50 mM (so in the source)), the percent inhibition at a single concentration stood at 90%.

`CCCCCCCN(Cc1ccc(C(C)(C)C)cc1)C(Nc1ccc(-c2ccccc2)cc1)=C1C(=O)COC1=O` [Example 13, 3-[([1,1'-Biphenyl]-4-ylamino)[[[4-(1,1-dimethylethyl)phenyl]methyl]heptylamino]methylene]-2,4(3H,5H)-furandione] had a negative logarithm of the IC50 (pIC50) in test [1] of 4.92. The percent inhibition at a single concentration in test [1] (Conc. 50 mM (so in the source)) came out at 91%.

In turn, `CCCCCCCN(Cc1ccc(C(C)(C)C)cc1)C(Nc1ccc(F)cc1F)=C1C(=O)COC1=O` [Example 14, 3-[[(2,4-Difluorophenyl)amino][[[4-(1,1-dimethylethyl)phenyl]methyl]heptylamino]methylene]-2,4(3H,5H)-furandione] registered a percent inhibition at a single concentration in test [1] (Conc. 25 mM (so in the source)) of 39%.

As for `CCCCCCCN(Cc1ccc(C(C)(C)C)cc1)C(Nc1c(C)cc(C)cc1C)=C1C(=O)COC1=O` [Example 15, 3-[[[[4-(1,1-Dimethylethyl)phenyl]methyl]heptylamino][(2,4,6-trimethylphenyl)amino]methylene]-2,4(3H,5H)-furandione], in test [1] (Conc. 25 mM (so in the source)), the percent inhibition at a single concentration was found to be 73%.

In turn, `CCCCCCCN(Cc1ccc(CCCCCC)cc1)C(Nc1ccc(C(F)(F)F)cc1)=C1C(=O)COC1=O` [Example 16, 3-[[Heptyl[(4-hexylphenyl)methyl]amino][[4-(trifluoromethyl)phenyl]amino]methylene]-2,4(3H,5H)-furandione] had a percent inhibition at a single concentration in test [1] (Conc. 25 mM (so in the source)) of 56%.

Consider `CCCCCCCN(Cc1ccc(C(C)(C)C)cc1)C(Nc1ccc(Cl)cc1)=C1C(=O)COC1=O` [Example 17, 3-[[(4-Chlorophenyl)amino][[[4-(1,1-dimethylethyl)phenyl]methyl]heptylamino]methylene]-2,4(3H,5H)-furandione], for which, in test [1], the pIC50 was 4.62. In test [1] (Conc. 25 mM (so in the source)), this compound registered a percent inhibition at a single concentration of 84%.

In test [1] (Conc. 25 mM (so in the source)), `CCCCCCCC/C=C\CCCCCCCCN(Cc1ccc(C(C)(C)C)cc1)C(Nc1ccc(F)cc1)=C1C(=O)COC1=O` [Example 18, 3-[[[[4-(1,1-Dimethylethyl)phenyl]methyl]((Z)-9-octadecenyl)amino][(4-fluorophenyl)amino]methylene]-2,4(3H,5H)-furandione] showed a percent inhibition at a single concentration of 44%.

As for `CCCCCCCN(Cc1ccc(C(C)(C)C)cc1)C(Nc1c(C)cc(N(C)C)cc1C)=C1C(=O)COC1=O` [Example 19], the pIC50 in test [1] was 5.02. Further, in test [1] (Conc. 25 mM (so in the source)), the percent inhibition at a single concentration is 77%.

Turning to `CCCCCC(C)N(Cc1ccc(C(C)(C)C)cc1)C(Nc1ccc(OC)cc1OC)=C1C(=O)COC1=O` (centres unmarked) [Example 20, 3-[[(2,4-Dimethoxyphenyl)amino][[[4-(1,1-dimethylethyl)phenyl]methyl](1-methylhexyl)amino]methylene]-2,4(3H,5H)-furandione], in test [1], the pIC50 is 5.82. In test [1] (Conc. 25 mM (so in the source)), this compound came in with a percent inhibition at a single concentration of 94%.

Turning to `CCCCCC(C)N(Cc1ccc(OCCC(C)C)cc1)C(Nc1ccc(OC)cc1OC)=C1C(=O)COC1=O` (centres unmarked) [Example 21, 3-[[(2,4-Dimethoxyphenyl)amino][[[4-(3-methylbutoxy)phenyl]methyl](1-methylhexyl)amino]methylene]-2,4(3H,5H)-furandione], the pIC50 in test [1] is 5.31. In test [1] (Conc. 25 mM (so in the source)), this compound came in with a percent inhibition at a single concentration of 97%. Also, the “% Decrease in Plasma Cholesterol” value with Plasma Cholesterol (20 mg/kg) is -23%.

`CCCCCCC(C)N(Cc1ccc(CC(C)(C)C)cc1)C(Nc1cc(C(C)(C)C)c(O)c(C(C)(C)C)c1)=C1C(=O)COC1=O` (centres unmarked) [Example 22, 3-[[[3,5-Bis(1,1-dimethylethyl)-4-hydroxyphenyl]amino][[[4-(2,2-dimethylpropyl)phenyl]methyl](1-methylheptyl)amino]methylene]-2,4(3H,5H)-furandione]: the negative logarithm of the IC50 (pIC50) in test [1] was 7.15. In test [1] (Conc. 25 mM (so in the source)), this compound gave a percent inhibition at a single concentration of 97%. Besides, in the test on Plasma Cholesterol (20 mg/kg), the “% Decrease in Plasma Cholesterol” value is given as -80%.

In test [1] (Conc. 25 mM (so in the source)), `CCCCCCN(Cc1ccc(CC(C)C)cc1)C(Nc1cc(C(C)(C)C)c(O)c(C(C)(C)C)c1)=C1C(=O)COC1=O` [Example 23] registered a percent inhibition at a single concentration of 88%.
